Experiments:
[1] = system: BGC-823 (human); experiment: Cytotoxicity against human BGC823 cells after 48 hrs by MTT assay; conditions: BGC-823, 48 h
[2] = system: HL-60 (human); experiment: Cytotoxicity against human HL60 cells after 48 hrs by MTT assay; conditions: HL-60, 48 h

C/C(=C\CC[C@](C)(O)[C@H]1CC[C@]2(C)[C@H]1C(=O)C[C@@H]1[C@@]3(C)CC[C@H](O)C(C)(C)[C@@H]3[C@@H](O)C[C@]12C)CO
IC50 [1]: > 100 µM | IC50 [2]: 16.3 µM

C/C(=C/CC[C@](C)(O)[C@H]1CC[C@]2(C)[C@H]1C(=O)C[C@@H]1[C@@]3(C)CC[C@H](O)C(C)(C)[C@@H]3[C@@H](O)C[C@]12C)CO
IC50 [1]: > 100 µM | IC50 [2]: 10.8 µM

CC(C)=CCC[C@](C)(O)[C@H]1CC[C@]2(C)[C@@H]1[C@H](O)C[C@@H]1[C@@]3(C)CC[C@H](O)C(C)(C)[C@@H]3[C@@H](O)C[C@]12C
IC50 [2]: 16 µM

C/C(=C\CC[C@](C)(O)[C@H]1CC[C@]2(C)[C@H]1[C@H](O)C[C@@H]1[C@@]3(C)CC[C@H](O)C(C)(C)[C@@H]3[C@@H](O)C[C@]12C)CO
IC50 [1]: > 100 µM | IC50 [2]: 12.3 µM

CC(C)=CCC[C@](C)(O)[C@H]1C[C@H](O)[C@]2(C)[C@H]1C(=O)C[C@@H]1[C@@]3(C)CC[C@H](O)C(C)(C)[C@@H]3[C@@H](O)C[C@]12C
IC50 [1]: > 100 µM | IC50 [2]: 15 µM
